# Experimental data taken from patent publication US8686044B2, “Amide derivative, pest control agent containing the amide derivative, and use of the amide derivative” (Mitsui Chemicals Agro, Inc., priority 2008, dated 2014).
# Like-named read-outs stand apart in the source and are kept apart here.
# How the values were obtained:
# Format in all cases: in vivo
# [1] = tested on: Spodoptera litura; test: Pesticidal test against Spodoptera litura (cabbage leaf dip); settings: foliar, 144 h, concentration 1 ppm, 2-stage larvae, examined after 6 days, 25° C., read-out: pesticidal rate
# How it was run: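 Cabbage leaf pieces dipped 30 seconds in compound solution at a predetermined concentration and air-dried, then offered to second-stage larvae, five per group in two replicates. Held at 25° C. Living and dead larvae counted after 6 days.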
# [2] = tested on: Plutella xylostella; test: Pesticidal test against Plutella xylostella (cabbage leaf dip); settings: foliar, 144 h, concentration 1 ppm, 2-stage larvae, examined after 6 days, 25° C., read-out: pesticidal rate
# How it was run: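 Cabbage leaf pieces dipped 30 s in test solution at a predetermined concentration, air-dried, then offered to 2nd-instar larvae, five per group in duplicate. Held at 25° C; living and dead larvae counted after 6 days.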
# [3] = tested on: Adoxophyes honmai; test: Pesticidal test against Adoxophyes honmai (artificial feed dip); settings: 144 h, concentration 10 ppm, 2-stage larvae, examined after 6 days, 25° C., read-out: pesticidal rate
# How it was run: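 Thin artificial feed slices dipped 30 s in test solution at a predetermined concentration, air-dried, then offered to 2nd-stage larvae. Kept at 25° C; live and dead larvae counted after 6 days. Five larvae per group, two replicates.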
# [4] = tested on: Choristoneura magnanima; test: Pesticidal test against Choristoneura magnanima (artificial feed dip); settings: 144 h, concentration 1 ppm, 2-stage larvae, examined after 6 days, 25° C., read-out: pesticidal rate
# How it was run: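 Thin artificial feed slices dipped 30 s in compound solution at a set concentration, air-dried, then offered to 2nd-stage larvae held at 25° C. Living and dead larvae counted after 6 days; five larvae per group, two replicates.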
# [5] = tested on: Helicoverpa armigera; test: Pesticidal test against Helicoverpa armigera (cabbage leaf disk dip); settings: foliar, 72 h, concentration 10 ppm, 2-stage larvae, examined after 3 days, 25° C., read-out: pesticidal rate
# How it was run: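 Cabbage leaf disks were dipped for 30 s in test solution at a set concentration and air-dried. Second-instar larvae were placed one per hole and held at 25 °C, with live and dead counts taken after 3 days. Five larvae per group were tested in two replicates.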
# [6] = tested on: Laodelphax striatellus; test: Pesticidal test against Laodelphax striatellus (rice seedling spray); settings: 144 h, concentration 100 ppm, 3-stage larvae, examined after 6 days, 25° C., read-out: pesticidal rate
# How it was run: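 Rice seedlings sprayed with 2.5 ml acetone solution of compound at a predetermined concentration, air-dried, then infested with third-stage Laodelphax striatellus larvae in capped water-containing tubes at 25 °C. Living and dead insects counted after 6 days; ten larvae per group, two replicates.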
# [7] = tested on: Musca domestica; test: Pesticidal test against Musca domestica (petri dish dry film); settings: 24 h, concentration 100 ppm, female adults, examined after 1 day, 25° C., read-out: pesticidal rate
# How it was run: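 Dry film from 1 ml acetone solution of compound at a predetermined concentration, air-dried in a 9 cm petri dish; female adult flies released and dish capped. Held at 25° C; living and dead counted after 1 day. Five insects per group, two replicates.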
# [8] = tested on: Blattella germanica; test: Pesticidal test against Blattella germanica (petri dish dry film); settings: 24 h, concentration 100 ppm, female adults, examined after 1 day, 25° C., read-out: pesticidal rate
# How it was run: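 Acetone solution of test compound at a predetermined concentration dried as a film in a 9 cm petri dish; female adult cockroaches released onto it and kept at 25° C. Living and dead counted after 1 day; five insects per group, two replicates.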
# [9] = tested on: Coptotermes formosanus; test: Pesticidal test against Coptotermes formosanus (treated filter paper); settings: 120 h, concentration 30 ppm, examined after 5 days of treatment, 28° C., read-out: pesticidal rate
# Experimental: Pesticidal Test against Coptotermes formosanus
# 20 μl of an acetone solution in which a test compound had been prepared at a predetermined concentration was added dropwise to the filter paper having a diameter of […] included in a polypropylene cup, and air-dried, and then 20 μl of water was added thereto. Coptotermes formosanus was released and the cup was capped. They were left to stand in a thermostatic chamber at 28° C., and the numbers of the living pests and the dead pests were examined after 5 days of treatment. The test was carried out with ten larvae per group in two replicates.
# [10] = tested on: Ctenocephalides Felis; test: Insecticidal test for Ctenocephalides felis, Test Example 1 (dry film in glass tube, 0.5 ml, Table A4); settings: for pest or weed control at 0.1 µg/mL: Ctenocephalides felis, read-out: death rate
# Experimental: Insecticidal Test for Ctenocephalides Felis
# 0.5 ml of a solution of acetone, the active ingredient, prepared to the prescribed concentration was added dropwise to a glass tube with a flat bottom (internal diameter: 2.6 cm, bottom area: 5.3 cm^2, height: 12 cm), and the solvent was evaporated at room temperature to form a dry film of the agent on the bottom surface. About 10 adults of Ctenocephalides Felis per glass tube were added, and the adults were contact-exposed to the test compound. After 24 hours of the exposure, the conditions of the adults were examined and classified into “alive” and “dead (including a moribund condition)” to determine the death rate (in triplicate).
# As the comparative compounds, the following Compounds (A), (B), and (C) disclosed in WO2009/080203, and fipronil were used.
# [11] = tested on: Ctenocephalides Felis; test: as above; settings: adults
# [12] = tested on: Ctenocephalides Felis; test: Insecticidal test for Ctenocephalides felis, Test Example 3 (dry film in glass tube, 0.96 ml, Table A5); settings: adults of Ctenocephalides felis, after 24 hours of exposure, in triplicate
# Experimental: Insecticidal Test for Ctenocephalides felis
# 0.96 ml of a solution of acetone, the active ingredient, prepared to the prescribed concentration was added dropwise to a glass tube with a flat bottom (internal diameter: 3.6 cm, height: 12 cm), and the solvent was evaporated at room temperature to form a dry film of the agent on the bottom surface. About 10 adults of Ctenocephalides felis per glass tube were added, and they were contact-exposed to the test compound. After 24 hours of the exposure, the conditions of the adults were examined and classified into “alive” and “dead (including a moribund condition)” to determine the death rate was determined (in triplicate).
# As the comparative compounds, the following Compounds (D) and (E) disclosed in WO2009/080203, and fipronil were used.
# [13] = tested on: Rhipicephalus sanguineus; test: Insecticidal test for Rhipicephalus sanguineus (treated glass petri dish, Table A6); settings: adults of Rhipicephalus sanguineus, 18 hour exposure, examined after 48 hours, in single
# Experimental: Insecticidal Test for Rhipicephalus sanguineus
# 0.5 ml of a solution of acetone, the active ingredient, prepared to the prescribed dose was added dropwise into a glass petri dish with a diameter of 10 cm, and the acetone was evaporated at room temperature. About 10 adults of Rhipicephalus sanguineus per dish were added, and the dish was covered by another glass petri dish that was treated with the active ingredient in the same manner described above. After 18 hour exposure to the test substance, the adults were transferred into a glass petri dish that was not treated with the active ingredient. After 48 hours of the exposure, the conditions of the adults were examined and classified into “alive” and “dead (including a moribund condition)” to determine the death rate (in single).
# As the comparative compounds, said Compounds (B), (C), and (D), and the following Compound (F) disclosed in WO2009/080203, and fipronil were used.
structure (smiles),measurement,setting,value
"CN(C(=O)c1ccccc1)c1cccc(C(=O)Nc2c(Br)cc(C(F)(C(F)(F)F)C(F)(F)F)cc2Br)c1F [7-1104, N-(2,6-dibromo-4-(heptafluoropropan-2-yl)phenyl)-2-fluoro-3-(N-methylbenzamide)benzamide]",pest or weed control at 1 ppm,[1],≥ 70%
same,pest or weed control at 1 ppm,[2],≥ 70%
same,pest or weed control at 10 ppm,[3],≥ 70%
same,pest or weed control at 1 ppm,[4],≥ 70%
same,pest or weed control at 10 ppm,[5],≥ 70%
same,pest or weed control at 100 ppm,[6],≥ 70%
same,pest or weed control at 100 ppm,[7],≥ 70%
same,pest or weed control at 100 ppm,[8],≥ 70%
same,pest or weed control at 30 ppm,[9],≥ 70%
same,pest or weed control at 0.1 µg/mL,"[10]; concentration 0.1 μg/ml, adults, after 24 hours of the exposure, in triplicate",73.3%
same,speed of effect as compared with the fipronil,"[10]; adults, compared with fipronil",immediate effect
same,effect in the examination after 12 hours of the exposure,[11],effective
Cc1cc(C(F)(C(F)(F)F)C(F)(F)F)cc(C)c1NC(=O)c1cccc(NC(=O)c2cccnc2Cl)c1F [compound (D)],death rate,[12]; 0.3 μg/ml,22.0%
same,death rate,[12]; 1 μg/ml,61.4%
same,death rate,[13]; 0.673 mg/m^2,0.0%
same,death rate,[13]; 2.69 mg/m^2,10.0%
same,death rate,[13]; 10.8 mg/m^2,50.0%
CCc1cc(C(F)(C(F)(F)F)C(F)(F)F)cc(C)c1NC(=O)c1cccc(NC(=O)c2ccccc2Cl)c1F [compound (E)],death rate,[12]; 1 μg/ml,0.0%
N#Cc1nn(-c2c(Cl)cc(C(F)(F)F)cc2Cl)c(N)c1[S+]([O-])C(F)(F)F (stereo not drawn) [fipronil],pest or weed control at 0.1 µg/mL,[10]; 24 h,92.1%
same,death rate,[12]; 0.03 μg/ml,70.0%
same,death rate,[12]; 0.1 μg/ml,100.0%
same,death rate,[13]; 0.0431 mg/m^2,0.0%
same,death rate,[13]; 0.172 mg/m^2,45.5%
same,death rate,[13]; 0.673 mg/m^2,100.0%
